Assay results reported in US7794965B2, “Method of identifying modulators of PP2A methylase” (Signum Biosciences, Inc., priority 2002, dated 2010).
Read-outs that look alike come from different tables or passages of the source.

Key:
[1] = for Hcy, total plasma homocysteine, ratio methionine-enriched / not enriched / SAH in brain homogenates, ratio methionine-enriched / not enriched / SAM in brain homogenates, ratio methionine-enriched / not enriched: B6, B12
Text: (§1) Male C57BL/J6 mice were obtained from the Jackson Laboratories (Bar Harbor, Me.) at 4 weeks of age. Mice were fed on a vitamin sufficient or a vitamin deficient diet for 9 weeks. All of the vitamin-sufficient diets contained folate, vitamin B6, and vitamin B12. All of the vitamin deficient diets lacked these vitamins. […] Another group was fed a vitamin deficient diet that contained basal levels of methionine (Harlan Teklad TD00428). The same was true for mice on the vitamin-sufficient diet. One group was fed a diet enriched for methionine (Harlan Teklad TD98002) and another was fed standard rodent chow 5001 c (Lab Diets). The mice were allowed free access to both food and water.
SAM and SAH levels were measured by high performance liquid chromatography (HPLC) according to the method described by Fu et al. in “Interrelations between plasma homocysteine and intracellular S-adenosylhomocysteine;” Biochem Biophys Res Commun 271: 47-53 (2000), which is incorporated herein by reference in its entirety particularly in parts pertinent to HPLC assays of SAM and SAH.
Samples of mouse brain were weighed and homogenized in two times weight/volume of 0.5 HCIO4. Samples were centrifuged at 12,500 g for 5 min and the supernatant was filtered through a 0.22 mm membrane. Aliquots of 25 ml were injected and run on a hypersil […] particle size, c18 (ODS), 250×4.6 mm (Phenomenex) column with an isocratic elution at 1.3 ml/min. The mobile phase consisted of 0.10 mM sodium acetate, 2.4 mM heptanesulfonic acid, 4.2% acetonitrile, and 50 mM sodium perchlorate. The pH was adjusted to 3.5 with 70% perchloric acid.
Standards were run at five different concentrations: 10,000, 5,000, 2,000, 1,000, and 500 pM for SAM, and 10,000, 5,000, 1,000, 100, and 50 μM for SAH. Linear curves, obtained from the SAM and SAH standards, were used to calculate concentrations of SAM and SAH in the brain homogenates.
Homocysteine was measured by HPLC in serum samples reduced with tri-n-butylphosphine.
Serum was prepared from whole blood, which was allowed to clot for 30 min on ice and then centrifuged. Samples were aliquoted, snap frozen and stored at −80° C. for analysis. For analysis, 150 ml of serum was thawed and reduced in a mixture containing 50 ml of 0.1 M potassium borate, 2 mM EDTA, pH 9.5, 0.2 mM mercaptopropionylglycine, and 20 ml of 100 ml/I of tri-n-butylphosphine in dimethylformamide. The reduction was allowed to proceed for 30 min on ice after which samples were mixed with 125 ml of 0.6 M perchloric acid containing 1 mM EDTA and allowed to react at room temperature for 10 min, and then centrifuged at 15500 g for 10 min. 100 ml was withdrawn from the middle of the supernatant and mixed with 200 ml of 0.2M potassium borate, pH 10.5, containing 5 mM EDTA. 100 ml of 1.0 gm Ammonium 7-fluorobenzo-2-oxa-1,3-diazole-4-sulphonate/I.OL 0.2M potassium borate, pH 9.5, was added and the mixture incubated at 60° C. for 60 min. Samples were cooled and then analyzed using HPLC. 10 ml of derivatized sample was used for each injection. Buffer A (0.1 M acetate buffer, pH 4.0, containing 20 ml/I methanol) and Buffer B (0.1 M acetate buffer, pH 6.0, containing 50 ml/I methanol) were run at a flow rate of 1.0 ml/min from A to B over 12.5 min then 2.5 min of B, a 3.0 min gradient back to A and 2.0 min A before next injection. A standard was also analyzed to quantify values of homocysteine. Mercaptopropionylglycine was added to the reduction buffer as an internal standard to monitor any potential loss during reduction.
Mice were fed on diets containing or deficient in folate, vitamin B6 and B12 as set out above. SAM, SAH and Hcy were determined as described above.
(§2) The effects of methionine enrichment were determined either in the presence or absence of a deficiency for folate, vitamin B6, and vitamin B12.

[2] = tested on: tau; details: for CP13 tau phosphorylation, ratio methionine-enriched / not enriched / PHF1 tau phosphorylation, ratio methionine-enriched / not enriched / TG5 total tau, ratio methionine-enriched / not enriched: B6, B12
Text: as §1
Mice brains were homogenized in 10 times volume/weight buffer containing:
62.5 mM Tris-HCl, pH 6.8, 10% (w/v) glycerol, 5% (v/v) [3-mercaptoethanol, 2.3% (w/v) SDS, 100 nM okadaic acid (OA), 1 mM phenylmethylsulfonyl fluoride, and 1 mM EDTA. This is a modified version of the buffer reported by Planel et al. [Planel, 2001 #54]. The homogenates were boiled for 5 mins and then centrifuged for 15 mins at 4° C. in a Fisher micro-centrifuge model 235A. The supernatant was then diluted 1:2 in SDS-sample buffer and loaded on a 12.5% percent SDS-PAGE gel. Gels were run at 200 V, transferred onto PVDF membrane at 100 V for 1 hr. Each membrane was blocked for 1 hr in 5% milk, followed by overnight incubation in antibodies, CP13 (1:200) and PHF1 (1:500) which recognize phosphoserine 202 and phosphoserine 396/404 respectively [Greenberg, 1992 #55; Otvos, 1994 #59] and TG5 (1:1000), which recognizes a phosphorylation independent epitope on tau [Jicha, 1997 #56]. The following day, membranes were washed 5× for 5 mins each with TBS containing tween (TBST) and then incubated with goat anti-mouse IgG horseradish peroxidase coupled secondary antibody, diluted 1:25,000 in 5% milk prepared in TBS, for 1 hr. Following the secondary antibody incubation, the membranes were washed 5× for 10 mins in TBST and developed with ECL plus (Amersham). Signal intensities of X-ray film exposures for each membrane were quantified by scanning densitometry using NIH Image.
Mice were fed on diets containing or deficient in folate, vitamin B6, and vitamin B12 as described above. Tau phosphorylation was determined in the mice by SDS-PAGE and western blotting using the procedures described above. The western blots were probed using three different tau-specific monoclonal antibodies, as discussed above.
as §2
Ratios are given for values obtained from mice fed diets enriched with methionine divided by values obtained from mice fed diets not enriched for methionine.
Feeding and assays were performed as described above. Hcy, total plasma homocysteine; SAM and SAH values measured in brain homogenates. CP13 and PHF1, tau phosphorylation and TG5, total tau (see data below) body, brain, and heart weights (see data in examples above).

[3] = tested on: PP2A methylation in SH-SY5Y neuroblastoma cells; assay: PP2A methylation in cultured SH-SY5Y cells, western blotting with antibodies 6A3 (total) and 4D9 (methylated); format: cell-based; details: homocysteine 0, 25, 50, 100, and 200 mM, three hours
Description: SH-SY5Y cells were propagated in a 1:1 mixture of Eagle's Minimum Essential Medium and Ham's F12 medium supplemented with 10% Fetal Bovine Serum, Penicillin (100 units/ml)/Streptomycin ([…]) and 2 mM L-Glutamine. The flasks were incubated at 37° C. (5% CO2). Media was changed every 4-6 days until the cells were confluent. On confluency, cells were treated with 25-200 mM homocysteine for 3 hours. […] Each membrane was blocked for 1 hr in 5% milk, followed by an hour incubation in antibodies, 6A3 (1:50) and 4D9 (1:25) which recognize total and methylated PP2A, respectively.
Inhibition of PP2A methylation by homocysteine was determined in cultured cells. Total PP2A and methylated PP2A was determined by western blotting in SH-SY5Y neuroblastoma cells. Homocysteine was added to confluent SH-SY5Y cells to concentrations of […]. Three hours after adding homocysteine the cells were harvested into cold PBS, mixed with SDS sample buffer, and then analyzed by SDS-PAGE and western blotting. To determine total PP2A, the blots were probed with monoclonal antibody 6A3, which recognizes total PP2A. To determine methylated PP2A the blots were probed with monoclonal antibody 4D9, which recognizes methylated but not unmethylated PP2A.

[4] = molecular target: PP2A phosphatase activity (Homo sapiens, UniProt P67775); details: cited from earlier work
[5] = molecular target: methylation of PP2A (Homo sapiens, UniProt P67775); details: cited from earlier work
[6] = tested on: cultured human neurons; details: Merrick, 1997; cited from earlier work
[7] = excess methionine added to vitamin-deficient diets

Chain of methylation of PP2A (P67775 whole entry): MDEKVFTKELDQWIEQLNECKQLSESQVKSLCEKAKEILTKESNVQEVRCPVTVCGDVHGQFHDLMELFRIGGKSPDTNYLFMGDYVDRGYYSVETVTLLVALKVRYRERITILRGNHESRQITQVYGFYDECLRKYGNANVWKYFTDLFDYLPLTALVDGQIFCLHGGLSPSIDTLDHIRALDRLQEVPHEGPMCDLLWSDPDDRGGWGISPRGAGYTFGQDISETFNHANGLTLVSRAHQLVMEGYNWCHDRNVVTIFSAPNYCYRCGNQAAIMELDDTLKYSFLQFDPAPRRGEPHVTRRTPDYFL
Chain of PP2A phosphatase activity (P67775 whole entry): as above

CSCC[C@H](N)C(=O)O [methionine]
Hcy, total plasma homocysteine, ratio methionine-enriched / not enriched ([1]; diets with folate): 1.9
SAH in brain homogenates, ratio methionine-enriched / not enriched ([1]; diets with folate): 0.8
SAM in brain homogenates, ratio methionine-enriched / not enriched ([1]; diets with folate): 0.9
Hcy, total plasma homocysteine, ratio methionine-enriched / not enriched ([1]; diets without folate): 0.9
SAH in brain homogenates, ratio methionine-enriched / not enriched ([1]; diets without folate): 1.1
SAM in brain homogenates, ratio methionine-enriched / not enriched ([1]; diets without folate): 1.2
change in plasma Hcy ([1]; excess methionine added to the normal diet): approximately two-fold increase
effect on methylation metabolism [1, 7]: did not have a sizeable significant effect
CP13 tau phosphorylation, ratio methionine-enriched / not enriched ([2]; diets with folate): 1.1
PHF1 tau phosphorylation, ratio methionine-enriched / not enriched ([2]; diets with folate): 1.2
TG5 total tau, ratio methionine-enriched / not enriched ([2]; diets with folate): 1.2
CP13 tau phosphorylation, ratio methionine-enriched / not enriched ([2]; diets without folate): 1
PHF1 tau phosphorylation, ratio methionine-enriched / not enriched ([2]; diets without folate): 0.9
TG5 total tau, ratio methionine-enriched / not enriched ([2]; diets without folate): 1
effect on tau hyperphosphorylation [2, 7]: did not have a sizeable significant effect

N[C@@H](CCS)C(=O)O [homocysteine]
Total PP2A (antibody 6A3) [3]: remained much the same
level of methylated PP2A (antibody 4D9) [3]: declined dramatically

C=C1[C@@H](O)[C@@H]2O[C@]3(CC[C@H](/C=C/[C@@H](C)[C@@H]4CC(C)=C[C@@]5(O[C@H](C[C@@](C)(O)C(=O)O)CC[C@H]5O)O4)O3)CC[C@H]2O[C@@H]1[C@@H](O)C[C@H](C)[C@H]1O[C@@]2(CCCCO2)CC[C@H]1C [Okadaic acid]
inhibition of PP2A phosphatase activity [4]: potent inhibitor
inhibition of methylation of PP2A [5]: potent inhibitor
effect on tau and microtubules in cultured human neurons [6]: tau hyperphosphorylation, reduced binding of tau to MTs, MT depolymerization, and axonal degeneration
